Source: patent publication US3969401A, “D-aminophenylacetic acid compounds and derivatives” (William H. Rorer, Inc., priority 1973, dated 1976)
Structures can show the parent of a compound that is named as a salt.

What was measured:
polyarthritis (adjuvant) = assay: Polyarthritis in rats (adjuvant); type: in vivo
Description: Twelve rats per dose group were treated (b.i.d.) starting the day before injection of adjuvant. Paw volumes were measured for both hind paws on several days during and following drug treatment. Drug was given for a period of 15 days. The paw volume was compared to an untreated control group to determine volume increase. Drug action was calculated as the percent decrease in paw volume (inflammation) as compared to an adjuvant-treated control. Gross signs of inflammation were scored on a weekly basis and drug action calculated as a decrese in total score. Body weights were recorded at intervals.

[1] = system: yeast-inflamed hind paw (pain threshold); assay: Randall-Selitto Analgesia Test (RSA); type: in vivo, rat
Description: In accordance with the Randall-Selitto test for measuring the pain threshold, the pressure needed on a metal plunger to give a "pain reponse" in a rat when the plunger is placed in the yeast-inflamed hind paw of a rat is measured. Following measurement of control pain threshold, yeast was injected into the paw and the test compound was given orally. The pain threshold was measured at hourly intervals and compared to a placebo-treated control group.
(§1) The test results are given in the following Table wherein the following legends were employed: PQW phenylquinone writhing RSA Randall-Selitto Analgesia CPE Carrageenan Paw Edema UVS Ultra-Violet Erythema FPG Filter Paper Granuloma AP Anti-Pyresis P.T. Pain Threshold No. P/T Number Positive/Total % ↑ Percentage Increase % ↓ Percentage Inhibition

Brewer's yeast fever = assay: Anti-Pyretic Assay (AP); type: in vivo, rats; conditions: positive = rectal temperature decreases by 1° C. or more
Description: Brewer's yeast was injected subcutaneously in rats and rectal temperatures were obtained at the end of five hours. Those rats (10 per group) having a significant fever were given test compounds and rectal temperatures were measured at hourly intervals for 2 to 3 hours. (A positive response occurs when rectal temperature decreases by 1° C. or more).
as §1

carrageenan paw edema = assay: Carrageenan Paw Edema (CPE); type: in vivo, male rats
Description: Of the substances used to induce local irritation, carrageenan was selected since most known nonsteroidal anti-inflammatory agents inhibit this inflammation.
Ten male rats per dose group (120-150 g.) were given one-half of the test material orally. Thirty minutes later, the remainder of the dose was given and 0.2 ml. of a 1% carrageenan solution was injected subdermally into the plantar surface of the hind paw. Each paw is marked as a consistent anatomical site, then immersed in a mercury bath to that point. The mercury bath is connected to a pressure transducer and the volume of displacement is read directly on a recorder. Three hours after drug administration, the hind paw volume is measured again. The increased volume is an index of edema. Treated groups are compared to a placebo-treated group to calculate the percent inhibition of edema.
as §1

gastrointestinal tract = assay: Gastrointestinal tolerance; type: in vivo; conditions: compared with the free acids
Acute Toxicity = conditions: mouse, in vivo; male mice, oral single dose, observed nine days
Description: Food and water were delivered ad lib. The drug to be tested was prepared as a water suspension using one drop of "Tween 80" per 10 ml. and administered orally as a single dose (10 ml./kg.). The control group received the vehicle only (10 ml./kg.). The lethal dose (LD50) which is the dose of drug required to kill 50 percent of the animals tested, was determined by the Litchfield and Wilcoxon method.

ultra-violet erythema = assay: Ultra-violet Erythema in Guinea Pigs (UVE); type: in vivo, guinea pig
Source text: Erythema associated with inflammation was used in the assay. Restricted areas of a guinea pig were exposed to a controlled ultra-violet light and after two hours the exposed areas were graded for the extent of erythema.
as §1

phenylquinone writhing = assay: Phenylquinone analgesia (phenylquinone writhing, PQW); type: in vivo, mice
Description: Mice were pre-treated orally with test compound and then given 1.25 mg./kg. of phenylquinone i.p to produce a series of "writhes" (severe intestinal contractions). The number of writhes was recorded. The percent decrease was calculated from the incidence of writhes in a placebo-treated control group.
as §1

filter paper granuloma = assay: Filter Paper Granuloma (FPG); type: in vivo, rat
Description: This assay was used to evaluate anti-inflammatory agents and to determine the lowest dose which produces significant inhibition of granuloma growth. This assay has the advantage of being semi-acute (4 to 7 days). The usual end point involves obtaining the wet weight as well as the dry weight of the granuloma.
Small discs of filter paper saturated with carrageenan were placed subcutaneously in each rat on the first day of the study. Test compound was administered orally on a b.i.d. basis on Day 1 to Day 4. On Day 5, a single dose was given in the morning and the animals were sacrificed in the afternoon. Both filter paper discs were removed and trimmed of extraneous tissue and then weighed. After drying in an oven over the weekend, the dry weight was obtained. Activity was determined by the difference in granuloma weight between a placebo-treated control group and the drug-treated groups.
as §1

With N=C1NC(=O)C(c2ccc(C3CCCCC3)c(Cl)c2)S1 (centres unmarked) [Compound 530, 5-(m-Chloro-p-cyclohexylphenyl)-2-imino-4-oxothiazolidine] the “Polyarthritis % av. inhibition, injected hind-paw” value (polyarthritis (adjuvant); 100 mg./kg./day P.O) was 38.1%, the “Polyarthritis % av. inhibition, noninjected hind-paw” value (polyarthritis (adjuvant); 100 mg./kg./day P.O) was 44.7% and the “Polyarthritis % av. inhibition, secondary lesions” value (polyarthritis (adjuvant); 100 mg./kg./day P.O) was 17.3%. For the same compound, the “RSA % increase of pain threshold (PT)” value ([1]; 100 mg/kg P.O) was 51.4%.
In the case of O=C1NC(=O)C(c2ccc(C3CCCCC3)c(Cl)c2)S1 (centres unmarked) [Compound 529, 5-(m-Chloro-p-cyclohexylphenyl)-2,4-dioxothiazolidine], the “AP No. P/T (Number Positive/Total)” value (Brewer's yeast fever; 100 mg/kg P.O) is reported as 1/8, the “Polyarthritis % av. inhibition, injected hind-paw” value (polyarthritis (adjuvant); 100 mg./kg./day P.O) is reported as 42.0% and the “Polyarthritis % av. inhibition, noninjected hind-paw” value (polyarthritis (adjuvant); 100 mg./kg./day P.O) is reported as 17.3%. The “Polyarthritis % av. inhibition, secondary lesions” value (polyarthritis (adjuvant); 100 mg./kg./day P.O) was 21.0%, the “CPE % inhibition of edema” value (carrageenan paw edema; 50 mg/kg P.O) was 17.4% and the “CPE % inhibition of edema” value (carrageenan paw edema; 100 mg/kg P.O) was 30%.
In the case of CCOC(=O)C(Cl)c1ccc(C2CCCCC2)c(Cl)c1 (stereo not drawn) [Compound 541, α,m-Dichloro-p-cyclohexylphenylacetic acid ethyl ester], the gastrointestinal tolerability (gastrointestinal tract) is reported as “better tolerated and not as irritating on the gastrointestinal tract as the free acids”, the “CPE % inhibition of edema” value (carrageenan paw edema; 6.25 mg/kg P.O) is reported as 51.3% and the “CPE % inhibition of edema” value (carrageenan paw edema; 12.5 mg/kg P.O) is reported as 38.8%. The “CPE % inhibition of edema” value (carrageenan paw edema; 25 mg/kg P.O) was 49.8% and the “CPE % inhibition of edema” value (carrageenan paw edema; 50 mg/kg P.O) was 52.2%.
In the case of O=C(O)C(SSC(C(=O)O)c1ccc(C2CCCCC2)c(Cl)c1)c1ccc(C2CCCCC2)c(Cl)c1 (stereo not drawn) [Compound 531A, Diethylammonium salt of α,α'-di-(m-chloro-p-cyclohexylphenyl)-α',α'-dithiodiacetic acid], the LD50 at 216 h (Acute Toxicity) is reported as greater than 2000 mg/kg, the “AP No. P/T (Number Positive/Total)” value (Brewer's yeast fever; 50 mg/kg P.O) is reported as 1/8 and the “AP No. P/T (Number Positive/Total)” value (Brewer's yeast fever; 100 mg/kg P.O) is reported as 1/8. For the same compound, the “AP No. P/T (Number Positive/Total)” value (Brewer's yeast fever; 200 mg/kg P.O) was 6/8, the “Polyarthritis % av. inhibition, injected hind-paw” value (polyarthritis (adjuvant); 100 mg./kg./day P.O) was 34.0% and the “Polyarthritis % av. inhibition, noninjected hind-paw” value (polyarthritis (adjuvant); 100 mg./kg./day P.O) was 44.7%. For the same compound, the “Polyarthritis % av. inhibition, secondary lesions” value (polyarthritis (adjuvant); 100 mg./kg./day P.O) was 30.3%, the “Polyarthritis % av. inhibition, injected hind-paw” value (polyarthritis (adjuvant); 200 mg./kg./day P.O) was 35.6% and the “Polyarthritis % av. inhibition, noninjected hind-paw” value (polyarthritis (adjuvant); 200 mg./kg./day P.O) was 43.8%. For the same compound, the “Polyarthritis % av. inhibition, secondary lesions” value (polyarthritis (adjuvant); 200 mg./kg./day P.O) was 43.6%, the “CPE % inhibition of edema” value (carrageenan paw edema; 100 mg/kg P.O) was 19.9% and the “RSA % increase of pain threshold (PT)” value ([1]; 50 mg/kg P.O) was 32%. For the same compound, the “RSA % increase of pain threshold (PT)” value ([1]; 100 mg/kg P.O) was 28% and the “RSA % increase of pain threshold (PT)” value ([1]; 200 mg/kg P.O) was 51%.
In the case of O=C(O)C(S)c1ccc(C2CCCCC2)c(Cl)c1 (stereo not drawn) [Compound 528A, Diethylammonium salt of m-chloro-p-cyclohexyl-α-mercaptophenylacetic acid], the “UVE No. P/T (Number Positive/Total)” value (ultra-violet erythema; 5 mg/kg P.O) is reported as 5/8, the “UVE No. P/T (Number Positive/Total)” value (ultra-violet erythema; 10 mg/kg P.O) is reported as 5/8 and the “UVE No. P/T (Number Positive/Total)” value (ultra-violet erythema; 25 mg/kg P.O) is reported as 7/8. For the same compound, the ED50 (ultra-violet erythema; Cavia porcellus, po, P.O) was 10.5 mg/kg, the “Polyarthritis % av. inhibition, injected hind-paw” value (polyarthritis (adjuvant); 100 mg./kg./day P.O) was 52.8% and the “Polyarthritis % av. inhibition, noninjected hind-paw” value (polyarthritis (adjuvant); 100 mg./kg./day P.O) was 35.6%. The “Polyarthritis % av. inhibition, secondary lesions” value (polyarthritis (adjuvant); 100 mg./kg./day P.O) was 34.0% and the “CPE % inhibition of edema” value (carrageenan paw edema; 100 mg/kg P.O) was 52.0%.
With O=C(O)C(Cl)c1ccc(C2CCCCC2)c(Cl)c1 (stereo not drawn) [Compound 539A, Sodium salt of α,m-dichloro-p-cyclohexylphenylacetic acid] the “PQW % inhibition (decrease in writhes)” value (phenylquinone writhing; 2 mg/kg P.O) was 13.1%, the “PQW % inhibition (decrease in writhes)” value (phenylquinone writhing; 5 mg/kg P.O) was 13.1% and the “PQW % inhibition (decrease in writhes)” value (phenylquinone writhing; 10 mg/kg P.O) was 54.6%. The “PQW % inhibition (decrease in writhes)” value (phenylquinone writhing; 20 mg/kg P.O) was 84.5%, the “PQW % inhibition (decrease in writhes)” value (phenylquinone writhing; 30 mg/kg P.O) was 96.6% and the ED50 (phenylquinone writhing; Mus musculus, po, P.O) was 9.6 mg/kg. The LD50 at 216 h (Acute Toxicity) was 430 mg/kg, the “AP No. P/T (Number Positive/Total)” value (Brewer's yeast fever; 6.25 mg/kg P.O) was 0/8 and the “AP No. P/T (Number Positive/Total)” value (Brewer's yeast fever; 12.5 mg/kg P.O) was 3/8. For the same compound, the “AP No. P/T (Number Positive/Total)” value (Brewer's yeast fever; 25 mg/kg P.O) was 2/8, the “AP No. P/T (Number Positive/Total)” value (Brewer's yeast fever; 50 mg/kg P.O) was 6/8 and the “AP No. P/T (Number Positive/Total)” value (Brewer's yeast fever; 100 mg/kg P.O) was 8/8. For the same compound, the “Polyarthritis % av. inhibition, injected hind-paw” value (polyarthritis (adjuvant); 10 mg./kg./day P.O) was 41.8%, the “Polyarthritis % av. inhibition, noninjected hind-paw” value (polyarthritis (adjuvant); 10 mg./kg./day P.O) was 14.1% and the “Polyarthritis % av. inhibition, secondary lesions” value (polyarthritis (adjuvant); 10 mg./kg./day P.O) was 28.2%. For the same compound, the “Polyarthritis % av. inhibition, injected hind-paw” value (polyarthritis (adjuvant); 25 mg./kg./day P.O) was 50.2%, the “Polyarthritis % av. inhibition, noninjected hind-paw” value (polyarthritis (adjuvant); 25 mg./kg./day P.O) was 12.1% and the “Polyarthritis % av. inhibition, secondary lesions” value (polyarthritis (adjuvant); 25 mg./kg./day P.O) was 44.0%. The “Polyarthritis % av. inhibition, injected hind-paw” value (polyarthritis (adjuvant); 50 mg./kg./day P.O) was 45%, the “Polyarthritis % av. inhibition, noninjected hind-paw” value (polyarthritis (adjuvant); 50 mg./kg./day P.O) was 59.6% and the “Polyarthritis % av. inhibition, secondary lesions” value (polyarthritis (adjuvant); 50 mg./kg./day P.O) was 39.3%. The “Polyarthritis % av. inhibition, injected hind-paw” value (polyarthritis (adjuvant); 100 mg./kg./day P.O) was 59.1%, the “Polyarthritis % av. inhibition, noninjected hind-paw” value (polyarthritis (adjuvant); 100 mg./kg./day P.O) was 51.2% and the “Polyarthritis % av. inhibition, secondary lesions” value (polyarthritis (adjuvant); 100 mg./kg./day P.O) was 30.1%. For the same compound, the “EPG (Filter Paper Granuloma) % inhibition, dry weight” value (filter paper granuloma; 25 mg./kg./day P.O) was 41.1%, the “EPG (Filter Paper Granuloma) % inhibition, wet weight” value (filter paper granuloma; 25 mg./kg./day P.O) was 31.7% and the “EPG (Filter Paper Granuloma) % inhibition, dry weight” value (filter paper granuloma; 50 mg./kg./day P.O) was 38.8%. For the same compound, the “EPG (Filter Paper Granuloma) % inhibition, wet weight” value (filter paper granuloma; 50 mg./kg./day P.O) was 43.9%, the “CPE % inhibition of edema” value (carrageenan paw edema; 1 mg/kg P.O) was 10% and the “CPE % inhibition of edema” value (carrageenan paw edema; 2 mg/kg P.O) was 30.3%. The “CPE % inhibition of edema” value (carrageenan paw edema; 3.125 mg/kg P.O) was 34.6%, the “CPE % inhibition of edema” value (carrageenan paw edema; 5 mg/kg P.O) was 29.5% and the “CPE % inhibition of edema” value (carrageenan paw edema; 6.25 mg/kg P.O) was 42.0%. For the same compound, the “CPE % inhibition of edema” value (carrageenan paw edema; 12.5 mg/kg P.O) was 47.2%, the “CPE % inhibition of edema” value (carrageenan paw edema; 25 mg/kg P.O) was 43.0% and the “CPE % inhibition of edema” value (carrageenan paw edema; 50 mg/kg P.O) was 52.0%. The “CPE % inhibition of edema” value (carrageenan paw edema; 100 mg/kg P.O) was 64.0%, the “RSA % increase of pain threshold (PT)” value ([1]; 25 mg/kg P.O) was 41.8% and the “RSA % increase of pain threshold (PT)” value ([1]; 50 mg/kg P.O) was 49.3%. The “RSA % increase of pain threshold (PT)” value ([1]; 100 mg/kg P.O) was 77.6%.
